Peptide text beside a SMILES is read from it. * marks the point of attachment. Cbz = O=C(OCc1ccccc1)*; CH2F = FC*
Legend:
murine aortic rings = assay: Aortic ring matrigel assay (ex vivo); assay type: cell-based, mouse; conditions: netrin-1 150 ng/ml, z-VAD-fmk 20 nM, BAF 20 nM, VEGF 13 ng/ml; day 4
Procedure: Aortic ring assays were performed as described by Nicosia and colleagues (Nicosia and Ottinetti, 1990). Aortas were resected from Balb/C mice of 6 to 8 weeks of age, cleaned of periadventitial fat and connective tissues, rinsed twice in ECGM and cut in rings of 1 to 1.5 mm length. One hundred microliters of Growth factor reduced Matrigel (BD Biosciences) was added to each well of a 48-well tissue culture plate (Costar) and allowed to solidify for 30 min. at 37° C. Aortic rings were placed on the matrix layer, embedded in 100 μl of Matrigel, and allowed to recover in complete growth medium (ECGM, Promocell) for 24 hours. They were then treated or not with netrin-1 (150 ng/ml), z-VAD-fmk (Tebu; 20 nM), BAF (Sigma; 20 nM) or VEGF (Sigma; 13 ng/ml) and photographed with a phase contrast microscope on day 4. Microvessels outgrowth total length was calculated using AxioVision Release 4.6 software.

[1] = tested on: chick chorioallantoic membrane; assay: Chick chorioallantoic membrane (CAM) assay; assay type: in vivo; conditions: 8-day-old chick embryos, 3 days; netrin-1 150 ng/ml, z-VAD-fmk 20 nM, BAF 20 nM; p<0.02
Procedure: Chick chorioallantoic membrane assay (CAM) assay was performed as already described. White Leghorn eggs were incubated at 37° C. in a humidified atmosphere. After 72 hours of incubation, 3 ml albumen was removed and a square window was opened into the shell. The opening was closed with cellotape until day 8. Netrin-1 (150 ng/ml), z-VAD-fmk (Tebu; 20 nM), BAF (Sigma; 20 nM), or VEGF (Sigma) were then diluted in PBS and mixed with an equal volume of autoclaved 1% methylcellulose solution. Controls were prepared with vehicles only. Each sample solution (10 μl) was dropped on Parafilm and dried up. The methylcellulose disks were stripped off from the Parafilm and placed on a CAM of the 8-day-old chick embryos. After 3 days, CAMs were photographed and the angiogenic response was evaluated by measuring the number of secondary ectopic vessels sprouts under the methylcellulose disks using AxioVision Release 4.6 software. UNC5B silencing in CAM was achieved by injection of specific siRNA designed by Sigma-Proligo in CAM blood circulation at E.5, E.7 and E.9. Analysis was performed at E.11.

HUAEC [2] = assay: Cell death upon serum starvation, trypan blue exclusion; assay type: cell-based, human; conditions: netrin 50 ng/ml, p<0.005
Procedure: (§1) Cell death assays were performed as described previously. Briefly, endothelial cells were seeded at 10 000 cells/cm2 in complete medium for 16 hours. Cell death was induced either by starvation in serum free medium (Endothelium Cell Basal Medium, Promocell) or by exposure to 50 μM etoposide. Netrin-1 was purchased from Axxora-Apotech. Cell death was scored by trypan blue exclusion assay as previously described. For detection of DNA fragmentation, treated cells cultured on coverslips were fixed 20 minutes in 4% paraformaldehyde (PFA) and Terminal deoxynucleodityl transferase mediated dUTP-biotin Nick End Labeling (TUNEL) was performed with 300 U/mL TUNEL enzyme (300 U/mL) and 6 μM biotinylated dUTP (Roche Diagnostics). Caspase-3 activity was measured using ApoAlert CPP32 kit from Clontech (USA) and by immunostaining on fixed cells using anti-active-caspase-3 antibody (Cell Signaling) as described in (Llambi et al., 2005; Tauszig-Delamasure et al., 2007). Toxilight assay was performed according to manufacturer's instructions (Lonza). For netrin-1 titration experiment, rat recombinant UNC5H2-Fc (R&D) was used at 1 μg/ml.

HUVEC [3] = assay: as above; assay type: cell-based, human; conditions: netrin 50 ng/ml, p<0.005
Procedure: as §1

HUAEC [4] = assay: Etoposide-induced cell death, Toxilight assay; assay type: cell-based, human; conditions: overnight treatment with 50 μM etoposide; p<0.05
Procedure: as §1

HUVEC [5] = assay: Etoposide-induced cell death, Toxilight assay; assay type: cell-based, human; conditions: overnight treatment with 50 μM etoposide; p<0.05
Procedure: as §1

HUVEC [6] = assay: TUNEL staining of apoptosis; assay type: cell-based, human; conditions: netrin 50 ng/ml
Procedure: as §1

HUVEC [7] = assay: Caspase-3 activity assay (ApoAlert CPP32 kit, active caspase-3 immunostaining); assay type: cell-based, human; conditions: netrin 50 ng/ml, p<0.005
Procedure: Human umbilical vein and artery cells (Promocell, passages<8) were cultured in endothelial cell growth medium (ECGM, Promocell) supplemented with 2% serum (kit, Promocell) until they reach 80% confluence. HUVEC were transfected using the AMAXA Nucleofector system, according to manufacturer's instructions. In brief, 500 000 cells were resuspended in 100 μl HUVEC Nucleofector solution and transfected with 1 μg siRNA or 1.5 μg plasmid DNA and 0.5 μg GFP-encoding control plasmid. UNC5A, UNC5B and scramble siRNAs were designed by Sigma-Proligo. Plasmids encoding mutant DAP kinase (DAP kinase ΔCam and DAP kinase DD) were described previously (Llambi et al., 2005). After transfection, cells were cultured in 1% growth medium and collected after 24 hours.
Cell death assays were performed as described previously. Briefly, endothelial cells were seeded at 10 000 cells/cm2 in complete medium for 16 hours. Cell death was induced either by starvation in serum free medium (Endothelium Cell Basal Medium, Promocell) or by exposure to 50 μM etoposide. Netrin-1 was purchased from Axxora-Apotech. Cell death was scored by trypan blue exclusion assay as previously described. […] Caspase-3 activity was measured using ApoAlert CPP32 kit from Clontech (USA) and by immunostaining on fixed cells using anti-active-caspase-3 antibody (Cell Signaling) as described in (Llambi et al., 2005; Tauszig-Delamasure et al., 2007). […]

HUAEC [8] = assay: as above; assay type: cell-based, human; conditions: netrin 50 ng/ml, p<0.005
Procedure: as §1

DAP kinase = DAP kinase phosphorylation, Western blot; assay type: cell-based, human; conditions: HUVEC; netrin-1 in serum free medium 24 hours
Procedure: Endothelial cells seeded at 10 000 cells/cm^2 and treated or not with netrin-1 in serum free medium (Endothelium Cell Basal Medium, Promocell) for 24 hours were collected and lysed in 50 mM HEPES pH 7.6, 125 mM NaCl, 5 mM EDTA and 0.1% NP-40 buffer in the presence of protease inhibitors. Protein extracts were immunoblotted with anti-DAP-kinase and anti-phospho-DAP kinase antibodies (Sigma). For immunofluorescence analysis, cells were seeded on LabTek chamber slides and fixed 15 minutes in 4% PFA.

[9] = tested on: fli:egfp zebrafish embryos; assay: Morpholino knockdown of fli:egfp zebrafish embryos, trunk vasculature phenotype; assay type: in vivo
Procedure: Resource Center (University of Oregon) and maintained under standard breeding conditions at 28° C. (Lawson and Weinstein, 2002). Embryos were dechorionated using pronase enzymatic treatment and 6 ng of splice/translation blocking netrin-1, UNC5B and control morpholinos that were previously designed and characterized were injected alone or in combination in the high yolk of one to four-cells-stage embryos. A third splice-blocking morpholino specifically targeting netrin-1a was designed (GeneTools) and injected in embryos at the same dose. Finally, 3 ng of a translation-blocking morpholino targeting zebrafish ortholog of DAP kinase (GeneTools) was injected, leading to 35% decrease of DAP kinase mRNA expression in knocked-down embryos compared to control. Sequences of morpholinos are available upon request. Embryos were raised in E3 medium supplemented with 0.003% phenylthiourea to inhibit pigment formation. Rescue of phenotype induced by netrin-1a silencing was tested by adding 40 nM BAF in the E3 medium 4 hours after morpholinos injection. For TUNEL staining, embryos were fixed at 48 hpf in 4% PFA overnight at 4° C. They were then rinsed 10 minutes in PBS-Tween 0.1% (PBST) and progressively dehydrated in successive methanol baths (25, 50, 75 and 100%). […]

zebrafish embryos = assay: Apoptosis in zebrafish embryos (TUNEL staining, caspase-3 activity); assay type: in vivo; conditions: TUNEL immunostaining and caspase-3 activity; tsl-netrin-1a injected embryos
Procedure: Embryos were dechorionated using pronase enzymatic treatment and 6 ng of splice/translation blocking netrin-1, UNC5B and control morpholinos that were previously designed and characterized were injected alone or in combination in the high yolk of one to four-cells-stage embryos. A third splice-blocking morpholino specifically targeting netrin-1a was designed (GeneTools) and injected in embryos at the same dose. […] Embryos were raised in E3 medium supplemented with 0.003% phenylthiourea to inhibit pigment formation. Rescue of phenotype induced by netrin-1a silencing was tested by adding 40 nM BAF in the E3 medium 4 hours after morpholinos injection. For TUNEL staining, embryos were fixed at 48 hpf in 4% PFA overnight at 4° C. They were then rinsed 10 minutes in PBS-Tween 0.1% (PBST) and progressively dehydrated in successive methanol baths (25, 50, 75 and 100%). […] Caspase-3 activity assay was performed as described above on whole embryos at 24 h development.

| reduced caspase-3 activity (HUVEC [7]) | reduced caspase-3 activity (HUAEC [8]) [%] | Compound | capillary sprouting / microvessels formation from aortic rings (murine aortic rings) | neovessel formation in vicinity of methylcellulose discs [1] | HUAEC cell death (HUAEC [2]) | HUVEC cell death (HUVEC [3]) | HUAEC cell death upon etoposide (HUAEC [4]) | HUVEC cell death upon etoposide (HUVEC [5]) | number of TUNEL positive cells (HUVEC [6]) | DAP kinase phosphorylation (DAP kinase) | embryos with PAV formation ([9]; spl-netrin-1a injected embryos treated with 40 nM BAF, n=54, 42.7% in untreated, p<0.0001) [%] | embryos displaying at least partial ISVs ([9]; tsl-netrin-1a knock-down embryos treated with BAF, 23.0% in controls, p<0.001) [%] | increase of cell death after netrin-1a silencing (zebrafish embryos) |
| --- | --- | --- | --- | --- | --- | --- | --- | --- | --- | --- | --- | --- | --- |
|  |  | COC(=O)C[C@H](NC(=O)[C@H](C)NC(=O)[C@@H](NC(=O)OCc1ccccc1)C(C)C)C(=O)CF [z-VAD-fmk, reference compound] (Cbz-Val-Ala-Asp(OMe)-CH2F) | induced neocapillary tube formation | significant increase in neovessel formation |  |  |  |  |  |  |  |  |  |
| up to 30% | ≤ 40 | netrin-1 | enhanced capillary sprouting | significant increase in neovessel formation | inhibited | inhibited | inhibits | inhibits | decreased number of TUNEL positive cells | increase in DAP kinase phosphorylation |  |  |  |
|  |  | VEGF | enhanced capillary sprouting | significant increase in neovessel formation |  |  |  |  |  |  |  |  |  |
|  |  | COC(=O)C[C@H](NC(=O)OC(C)(C)C)C(=O)CF [BAF] | induced neocapillary tube formation | significant increase in neovessel formation |  |  |  |  |  |  | 92.6 | 54.5 | rescued the increase of cell death |

From patent US20120015364A1, “METHOD FOR THE SELECTION OF ENDOTHELIAL CELLS DEATH INDUCERS VIA NETRIN-1 AND ITS APPLICATIONS” (CENTRE NATIONAL DE LA RECHERCHE SCIENTIFIQUE (CNRS), priority 2009, published 2012)
